Literature values, collected in US20050244498A1 (priority 2001, published 2005).

Details: in vivo

| SMILES | elimination half-life |
| --- | --- |
| COc1ccc(C(CN(C)C)C2(O)CCCCC2)cc1 (racemic) [venlafaxine, (R/S)-1-[2-(dimethylamino)-1-(4methoxyphenyl)ethyl]cyclohexanol] | about 4 hours |
| CN(C)CC(c1ccc(O)cc1)C1(O)CCCCC1 (centres unmarked) [active metabolite, O-desmethylvenlafaxine] | about 8 hours |
